Test results taken from the Deep4Chem optical property database.
One block for each compound: values may come before it.

Experiment: photoluminescence quantum yield (fraction); solvent given as SMILES
[1] = in O=P(c1ccccc1)(c1ccccc1)c1ccccc1Oc1ccccc1P(=O)(c1ccccc1)c1ccccc1

photoluminescence quantum yield (in C1CCCCC1): 0.0012
Structure (SMILES): Brc1c(Br)c2ccc3c(Br)c(Br)c4ccc5ccc1c1c5c4c3c21

photoluminescence quantum yield (in CC#N): 0.24 | photoluminescence quantum yield (in CCCCOCCCC): 0.57 | photoluminescence quantum yield (in CO): 0.02
Structure (SMILES): COc1nc(Nc2ccc3ccc4cccc5ccc2c3c45)nc(OC)n1

photoluminescence quantum yield (in C1CCOC1): 0.77
Structure (SMILES): C[Si](C)(C)c1ccc(-c2ccc(-c3ccc(-c4ccc(-c5ccc([Si](C)(C)C)cc5)s4)c4nsnc34)s2)cc1

photoluminescence quantum yield (in C1CCCCC1): 0.11
Structure (SMILES): COc1ccc(C2=C(c3ccc(OC)cc3)C(C)(C)c3ccc4ccccc4c32)cc1

Structure (SMILES): CCCCCCCCCCCCNc1cccc2[n+]1[B-](F)(F)n1c(c3cccc4cccc1c43)=N2
photoluminescence quantum yield (in C1CCOC1): 0.18 | photoluminescence quantum yield (in CC#N): 0.12 | photoluminescence quantum yield (in CCCCCC): 0.58 | photoluminescence quantum yield (in Cc1ccccc1): 0.36 | photoluminescence quantum yield (in ClCCl): 0.25

photoluminescence quantum yield (in C1CCOC1): 0.65 | photoluminescence quantum yield (in C1COCCO1): 0.63 | photoluminescence quantum yield (in CC#N): 0.6 | photoluminescence quantum yield (in CC(C)O): 0.44 | photoluminescence quantum yield (in CCO): 0.36 | photoluminescence quantum yield (in CCOC(C)=O): 0.66 | photoluminescence quantum yield (in CN(C)C=O): 0.68 | photoluminescence quantum yield (in CO): 0.28 | photoluminescence quantum yield (in CS(C)=O): 0.7 | photoluminescence quantum yield (in O): 0.41
Structure (SMILES): NS(=O)(=O)c1ccc(N2N=C(c3ccc(O)cc3)CC2c2ccccc2)cc1 (configuration not stated)

photoluminescence quantum yield (in C1CCOC1): 0.04 | photoluminescence quantum yield (in ClCCl): 0.02
Structure (SMILES): CCCCCCCc1ccc(C2=[N+]3C(=C4c5cc(OCC(CC)CC)c(-c6ccc(CCCCCCC)o6)n5[B-](F)(F)[n+]5nnn(c54)[B-]3(F)F)C=C2OCC(CC)CC)o1

Structure (SMILES): CC1(C)c2ccccc2N(c2ccccc2)c2ccc(-c3ccc(C(=O)c4ccc(-c5ccc6c(c5)C(C)(C)c5ccccc5N6c5ccccc5)cc4)cc3)cc21
photoluminescence quantum yield [1]: 0.53

photoluminescence quantum yield (in ClCCl): 0.02
Structure (SMILES): CC(C)(C)NC(=O)c1cccc2ccc3c4ccc(Cl)cc4c4cc(Cl)ccc4c3c12

photoluminescence quantum yield (in C1CCCCC1): 0.66
Structure (SMILES): c1ccc(-c2ccc(-c3ccc4c(c3)CCO4)cc2)cc1

Structure (SMILES): CCN1c2ccc(/C=N/Nc3ccccn3)cc2Sc2cc(/C=N/Nc3ccccn3)ccc21
photoluminescence quantum yield (in C1CCOC1): 0.15 | photoluminescence quantum yield (in CS(C)=O): 0.19 | photoluminescence quantum yield (in Cc1ccccc1): 0.14 | photoluminescence quantum yield (in ClCCl): 0.37

photoluminescence quantum yield (in C1CCCCC1): 0.21
Structure (SMILES): COc1ccc2c3c(c4ccc(OC)cc4c2c1)C1(c2ccccc2-c2ccccc21)c1ccccc1-3

Structure (SMILES): CC1=[N+]2C(=C(c3ccc(N(C)C)cc3)c3ccc(C)n3[B-]2(F)F)C=C1
photoluminescence quantum yield (in C1CCCCC1): 0.37 | photoluminescence quantum yield (in CC#N): 0.008 | photoluminescence quantum yield (in CC(=O)C(C)(C)C): 0.024 | photoluminescence quantum yield (in CC(C)=O): 0.006 | photoluminescence quantum yield (in CCCCCC): 0.376 | photoluminescence quantum yield (in CO): 0.03 | photoluminescence quantum yield (in Cc1ccccc1): 0.15 | photoluminescence quantum yield (in ClC(Cl)Cl): 0.058

Structure (SMILES): Cc1ccc2c(c1)c1cc(C)ccc1n2-c1cccc(-n2c3ccc(C)cc3c3cc(C)ccc32)c1C#N
photoluminescence quantum yield (in Cc1ccccc1): 0.34 | photoluminescence quantum yield [1]: 0.66

photoluminescence quantum yield (in C1CCOC1): 0.14 | photoluminescence quantum yield (in CC#N): 0.05 | photoluminescence quantum yield (in CCCCCC): 0.46
Structure (SMILES): CC1=N/C(=C\c2cccc(N(C)C)c2)C(=O)N1C

photoluminescence quantum yield (in ClCCl): 0.00044
Structure (SMILES): COc1cc2c(cc1OC)C1=C[C@H](c3ccc(Cl)cc3)C3(C(C#N)=C(C#N)N1CC2)c1ccccc1-c1ccccc13

Structure (SMILES): COc1ccc2c(c1)[nH]c1c3[nH]c4cc(OC)ccc4c3c3nsnc3c21
photoluminescence quantum yield (in CN(C)C=O): 0.47 | photoluminescence quantum yield (in Cc1ccccc1): 0.5 | photoluminescence quantum yield (in ClCCl): 0.5

photoluminescence quantum yield (in CCO): 0.53
Structure (SMILES): CCOC(=O)c1cc(C(=O)OCC)c2cc(OC)ccc2n1

photoluminescence quantum yield (in C1CCCCC1): 0.81 | photoluminescence quantum yield (in CCOC(C)=O): 0.86 | photoluminescence quantum yield (in CO): 0.82
Structure (SMILES): COC(=O)[C@H](Cc1ccc2oc3c(c2c1)=CC1=C(c2ccc(OC)cc2)c2cc4c5cc(C[C@H](NC(=O)OC(C)(C)C)C(=O)OC)ccc5oc4n2[B-](F)(F)[N+]=31)NC(=O)OC(C)(C)C

photoluminescence quantum yield (in CO): 0.37 | photoluminescence quantum yield (in ClC(Cl)Cl): 0.59 | photoluminescence quantum yield (in O): 0.03
Structure (SMILES): CC(=O)OCCOCCN1C(=O)c2cc(NCCOCCO)c3c4c(cc(NCCOCCO)c(c24)C1=O)C(=O)N(CCOCCOC(C)=O)C3=O

photoluminescence quantum yield (in ClC(Cl)Cl): 0.26
Structure (SMILES): O=C1[C@@H]2[C@H](C(=O)N1c1cccc3cc4ccccc4cc13)[C@@H]1C=C[C@H]2C1

photoluminescence quantum yield (in O): 0.075
Structure (SMILES): [NH3+]C(Cc1ccc(O)c(O)c1)C(=O)[O-] (configuration not stated)

Structure (SMILES): CN(C)c1ccc2nc(/C=C/c3cc4c5c(c3)CCCN5CCC4)c(=O)oc2c1
photoluminescence quantum yield (in C1CCCCC1): 0.37 | photoluminescence quantum yield (in C1COCCO1): 0.56 | photoluminescence quantum yield (in CC#N): 0.023 | photoluminescence quantum yield (in CC(C)=O): 0.08 | photoluminescence quantum yield (in CCCCCCC): 0.32 | photoluminescence quantum yield (in CCO): 0.008 | photoluminescence quantum yield (in CCOC(C)=O): 0.39 | photoluminescence quantum yield (in CN(C)C=O): 0.036 | photoluminescence quantum yield (in CS(C)=O): 0.03 | photoluminescence quantum yield (in Cc1ccccc1): 0.55 | photoluminescence quantum yield (in ClC(Cl)Cl): 0.2 | photoluminescence quantum yield (in ClCCl): 0.19

photoluminescence quantum yield (in CCO): 0.0424 | photoluminescence quantum yield (in ClCCl): 0.0634 | photoluminescence quantum yield (in O): 0.07
Structure (SMILES): O=Cc1ccc(-c2ccc(-c3nc4ccccc4s3)c(O)c2)s1

photoluminescence quantum yield (in ClC(Cl)Cl): 0.06
Structure (SMILES): CC1=CC(C)=[N+]2C1=C(c1ccc(I)cc1)c1c(C)cc(C)n1[B-]2(Oc1ccccc1)Oc1ccccc1

photoluminescence quantum yield (in CS(C)=O): 0.063
Structure (SMILES): CCOC(=O)C1=C(N)n2c(=O)c3ccccc3c(=O)n2C1c1ccc(C)cc1 (configuration not stated)

photoluminescence quantum yield (in C1CCCCC1): 0.0004 | photoluminescence quantum yield (in C1COCCO1): 0.002 | photoluminescence quantum yield (in CC#N): 0.0014 | photoluminescence quantum yield (in CCO): 0.005 | photoluminescence quantum yield (in OCC(F)(F)F): 0.005
Structure (SMILES): Cc1cc2c(o1)c(Br)cc1c(C)cc(=O)oc12

Structure (SMILES): Cc1ccc2c(c1)c1cc(C)ccc1n2-c1c(C#N)c(-n2c3ccc(C)cc3c3cc(C)ccc32)c(-n2c3ccc(C)cc3c3cc(C)ccc32)c(C#N)c1-n1c2ccc(C)cc2c2cc(C)ccc21
photoluminescence quantum yield (in Cc1ccccc1): 0.474

Structure (SMILES): Fc1ccc(-c2cc3c4c(c2)CCc2cc(-c5ccc(F)cc5)cc(c2-4)CC3)cc1
photoluminescence quantum yield (in C1CCCCC1): 0.48 | photoluminescence quantum yield (in C1CCOC1): 0.81 | photoluminescence quantum yield (in CC#N): 0.19 | photoluminescence quantum yield (in CCCCCC): 0.55 | photoluminescence quantum yield (in CCO): 0.18 | photoluminescence quantum yield (in CN(C)C=O): 0.56 | photoluminescence quantum yield (in CO): 0.24 | photoluminescence quantum yield (in Cc1ccccc1): 1 | photoluminescence quantum yield (in ClC(Cl)Cl): 0.55 | photoluminescence quantum yield (in ClCCl): 1

Structure (SMILES): CCCCCCc1ccc(-n2c3c(c4c2c2c(n4-c4ccc(CCCCCC)cc4)-c4cccc(OC)c4NB2c2ccccc2)B(c2ccccc2)Nc2c(OC)cccc2-3)cc1
photoluminescence quantum yield (in Cc1ccccc1): 0.62

photoluminescence quantum yield (in C1CCCCC1): 0.92
Structure (SMILES): CCCC1(CCC)c2cc(-c3ccc(C(C)(C)C)cc3)ccc2-c2ccc(-c3ccc4c(c3)C(CCC)(CCC)c3cc(-c5ccc(C(C)(C)C)cc5)ccc3-4)cc21

Structure (SMILES): c1ccc2c(c1)Cc1ccccc1N2c1c2ccccc2cc2ccccc12
photoluminescence quantum yield (in Cc1ccccc1): 0.06

photoluminescence quantum yield (in ClCCl): 0.697
Structure (SMILES): CCCCCCOc1cc(C=C2C(=O)c3ccccc3C2=O)c(OCCCCCC)cc1C=C1C(=O)c2ccccc2C1=O

photoluminescence quantum yield (in ClCCl): 0.29
Structure (SMILES): COc1ccc2cc(C3=[N+]4C(=Nc5c(-c6ccc7ccccc7c6)cc(-c6ccc7cc(OC)ccc7c6)n5[B-]4(F)F)C(c4ccc5ccccc5c4)=C3)ccc2c1

photoluminescence quantum yield (in ClCCl): 0.8
Structure (SMILES): COc1ccc2c(c1)CCC1=C(C#Cc3ccccc3)O[B-](F)(F)[O+]=C12

photoluminescence quantum yield (in CC#N): 0.029
Structure (SMILES): C[n+]1ccn(CCCCc2ccc3c(c2)c2ccccc2n3-c2cc(C#N)c(C#N)cc2F)c1

photoluminescence quantum yield (in C1COCCO1): 0.348
Structure (SMILES): COC(=O)c1ccc(/C=C2\N=C(c3ccc(OC)c(OC)c3)OC2=O)cc1

photoluminescence quantum yield (in C1CCCCC1): 0.14 | photoluminescence quantum yield (in CC#N): 0.14
Structure (SMILES): FC(F)(F)c1ccc(/C=C/c2nc3c(ccc4ccccc43)s2)cc1

photoluminescence quantum yield (in C1CCOC1): 0.34 | photoluminescence quantum yield (in CS(C)=O): 0.07 | photoluminescence quantum yield (in ClCCl): 0.33
Structure (SMILES): CCN(CC)c1ccc2cc(-c3csc(NC(C)=O)c3C#N)c(=O)oc2c1

photoluminescence quantum yield (in C1CCOC1): 0.00012
Structure (SMILES): C1=Cc2ccccc2C(=Cc2ccc(-c3ccc(C=C4c5ccccc5C=Cc5ccccc54)cc3)cc2)c2ccccc21

photoluminescence quantum yield (in ClCCl): 0.75
Structure (SMILES): c1ccc2c(-n3c(-c4ccc(-c5ccc(-c6nc7c8ccccc8c8ccccc8c7n6-c6cccc7ccccc67)c6ccccc56)c5ccccc45)nc4c5ccccc5c5ccccc5c43)cccc2c1

photoluminescence quantum yield (in ClC(Cl)Cl): 0.152
Structure (SMILES): CCOC(=O)C1(O)c2cc3ccc4cccc5ccc(c2C(=O)N1C(C)(C)C)c3c45 (configuration not stated)

Structure (SMILES): COc1ccc(-c2cc3c(o2)=CC2=Cc4cc5oc(-c6ccc(OC)cc6)cc5n4[B-](F)(F)[N+]=32)cc1
photoluminescence quantum yield (in C1CCOC1): 0.83 | photoluminescence quantum yield (in CC#N): 0.85 | photoluminescence quantum yield (in CCO): 0.77 | photoluminescence quantum yield (in CO): 0.77 | photoluminescence quantum yield (in Cc1ccccc1): 0.87 | photoluminescence quantum yield (in ClC(Cl)Cl): 0.86

photoluminescence quantum yield (in CC#N): 0.013 | photoluminescence quantum yield (in CCCCCC): 0.006
Structure (SMILES): Cc1ccc(-n2c(C)ccc2C)cc1

photoluminescence quantum yield (in CS(C)=O): 0.89
Structure (SMILES): c1ccc(-c2nc3sc4ccccc4c3s2)cc1

Structure (SMILES): O=C(c1ccc(-n2c3ccccc3c3cc(-n4c5ccccc5c5ccccc54)ccc32)cc1)c1ccc(-n2c3ccccc3c3cc(-n4c5ccccc5c5ccccc54)ccc32)cn1
photoluminescence quantum yield (in Cc1ccccc1): 0.38 | photoluminescence quantum yield [1]: 0.73

photoluminescence quantum yield (in C1COCCO1): 0.47 | photoluminescence quantum yield (in CC#N): 0.23 | photoluminescence quantum yield (in CC(C)O): 0.19 | photoluminescence quantum yield (in CCO): 0.13 | photoluminescence quantum yield (in CCOC(C)=O): 0.29 | photoluminescence quantum yield (in CN(C)C=O): 0.21 | photoluminescence quantum yield (in CO): 0.07 | photoluminescence quantum yield (in CS(C)=O): 0.18 | photoluminescence quantum yield (in OCC(O)CO): 0.12 | photoluminescence quantum yield (in OCCO): 0.08
Structure (SMILES): N#Cc1cccc2c(N)c(-c3nn([C@H]4C[C@H](O)[C@@H](CO)O4)c4ncnc(N)c34)ccc12

Structure (SMILES): Cc1ccc(-n2c3ccc(-c4ccc(-c5nc6ccccc6n5-c5ccccc5)cc4)cc3c3cc(-c4ccc(-c5nc6ccccc6n5-c5ccccc5)cc4)ccc32)cc1
photoluminescence quantum yield (in Cc1ccccc1): 0.65

photoluminescence quantum yield (in CC1CCCO1): 0.36
Structure (SMILES): O=c1cc2cc(O)c3cc(O)cc4ccc(o1)c2c43

photoluminescence quantum yield (in CC#N): 0.16
Structure (SMILES): Cc1cc2nc3c(=O)[nH]c(=O)nc-3n(C)c2cc1C

photoluminescence quantum yield (in ClCCl): 0.144
Structure (SMILES): CCCCCCCCCCCCN1C(=O)c2c(c3ccc4cc(-c5ccc(Cl)cc5)c(OC)cc4c3c3c2ccc2cc(-c4ccc(Cl)cc4)c(OC)cc23)C1=O

photoluminescence quantum yield (in ClCCl): 0.52
Structure (SMILES): COc1ccc(-c2cnc(/C=C/c3ccccc3)o2)cc1OC
